Consider two compounds from patent US20050267221A1, “Use of curcumin and analogues thereof as inhibitors of ACC2” (Research Development Foundation, priority 2004, published 2005).

Data set [1] addresses recombinant human ACC2 (Homo sapiens, UniProt O00763). Description: Radioactive assay of ACC2 activity ([14C]KHCO3 incorporation into malonyl-CoA). It is filed as biochemical. The procedure:
The reaction mixture contained 50 mM HEPES, pH 7.5, 2.5 mM MnCl2, 2.0 mM DTT, 0.125 mM acetyl-CoA, 4.0 mM ATP, 12.5 mM [^14C]KHCO3 (4×10^6 dpm), 0.75 mg/mL BSA, 10 mM tripotassium citrate and 0.1-0.2 μg ACC enzyme, in a total volume of 150 μL. The reaction was initiated by the addition of ACC2 and the assay was carried out at 37° C. for 2-7 min. The reaction was stopped by the addition of 50 μL of 6 N HCl. Subsequently, 150 μL was transferred into a glass scintillation vial and evaporated to dryness by heating to 85° C. in a heating block for 1 hour. The dried vials were cooled, 0.5 mL of water and 5 mL of ScintiSafe™ 30% were added, and the radioactivity was determined in a Beckman liquid scintillation counter (LS 3801). The tubes, where HCl was added before the addition of acetyl-CoA carboxylase, served as blanks. Avicin G and curcumin inhibitors were made up as stock solutions in water and DMSO, respectively, and added to the assay at the indicated concentrations such that the DMSO concentration was 1% (v/v). All reactions were performed in duplicate. Enzyme activity was based on radioactivity detected in malonyl-CoA and the dpm's set to 100% activity in the absence of any test compound. Inhibition by 1% (v/v) DMSO which was 16% was subtracted from values obtained in the dose response study.
A dose-response series was conducted with curcumin (in DMSO) to verify a classical inhibition pattern. In this study, all curcumin concentrations were added in 1% (v/v) DMSO and the enzyme activity measured.
The radioactive assay (as described in Example 3) was used to determine effects of the test compounds, avicin G and curcumin, on human acetyl-CoA carboxylase 2.

For data set [2] the following is noted: cited from earlier work.

recombinant human ACC2, sequence (O00763 whole entry): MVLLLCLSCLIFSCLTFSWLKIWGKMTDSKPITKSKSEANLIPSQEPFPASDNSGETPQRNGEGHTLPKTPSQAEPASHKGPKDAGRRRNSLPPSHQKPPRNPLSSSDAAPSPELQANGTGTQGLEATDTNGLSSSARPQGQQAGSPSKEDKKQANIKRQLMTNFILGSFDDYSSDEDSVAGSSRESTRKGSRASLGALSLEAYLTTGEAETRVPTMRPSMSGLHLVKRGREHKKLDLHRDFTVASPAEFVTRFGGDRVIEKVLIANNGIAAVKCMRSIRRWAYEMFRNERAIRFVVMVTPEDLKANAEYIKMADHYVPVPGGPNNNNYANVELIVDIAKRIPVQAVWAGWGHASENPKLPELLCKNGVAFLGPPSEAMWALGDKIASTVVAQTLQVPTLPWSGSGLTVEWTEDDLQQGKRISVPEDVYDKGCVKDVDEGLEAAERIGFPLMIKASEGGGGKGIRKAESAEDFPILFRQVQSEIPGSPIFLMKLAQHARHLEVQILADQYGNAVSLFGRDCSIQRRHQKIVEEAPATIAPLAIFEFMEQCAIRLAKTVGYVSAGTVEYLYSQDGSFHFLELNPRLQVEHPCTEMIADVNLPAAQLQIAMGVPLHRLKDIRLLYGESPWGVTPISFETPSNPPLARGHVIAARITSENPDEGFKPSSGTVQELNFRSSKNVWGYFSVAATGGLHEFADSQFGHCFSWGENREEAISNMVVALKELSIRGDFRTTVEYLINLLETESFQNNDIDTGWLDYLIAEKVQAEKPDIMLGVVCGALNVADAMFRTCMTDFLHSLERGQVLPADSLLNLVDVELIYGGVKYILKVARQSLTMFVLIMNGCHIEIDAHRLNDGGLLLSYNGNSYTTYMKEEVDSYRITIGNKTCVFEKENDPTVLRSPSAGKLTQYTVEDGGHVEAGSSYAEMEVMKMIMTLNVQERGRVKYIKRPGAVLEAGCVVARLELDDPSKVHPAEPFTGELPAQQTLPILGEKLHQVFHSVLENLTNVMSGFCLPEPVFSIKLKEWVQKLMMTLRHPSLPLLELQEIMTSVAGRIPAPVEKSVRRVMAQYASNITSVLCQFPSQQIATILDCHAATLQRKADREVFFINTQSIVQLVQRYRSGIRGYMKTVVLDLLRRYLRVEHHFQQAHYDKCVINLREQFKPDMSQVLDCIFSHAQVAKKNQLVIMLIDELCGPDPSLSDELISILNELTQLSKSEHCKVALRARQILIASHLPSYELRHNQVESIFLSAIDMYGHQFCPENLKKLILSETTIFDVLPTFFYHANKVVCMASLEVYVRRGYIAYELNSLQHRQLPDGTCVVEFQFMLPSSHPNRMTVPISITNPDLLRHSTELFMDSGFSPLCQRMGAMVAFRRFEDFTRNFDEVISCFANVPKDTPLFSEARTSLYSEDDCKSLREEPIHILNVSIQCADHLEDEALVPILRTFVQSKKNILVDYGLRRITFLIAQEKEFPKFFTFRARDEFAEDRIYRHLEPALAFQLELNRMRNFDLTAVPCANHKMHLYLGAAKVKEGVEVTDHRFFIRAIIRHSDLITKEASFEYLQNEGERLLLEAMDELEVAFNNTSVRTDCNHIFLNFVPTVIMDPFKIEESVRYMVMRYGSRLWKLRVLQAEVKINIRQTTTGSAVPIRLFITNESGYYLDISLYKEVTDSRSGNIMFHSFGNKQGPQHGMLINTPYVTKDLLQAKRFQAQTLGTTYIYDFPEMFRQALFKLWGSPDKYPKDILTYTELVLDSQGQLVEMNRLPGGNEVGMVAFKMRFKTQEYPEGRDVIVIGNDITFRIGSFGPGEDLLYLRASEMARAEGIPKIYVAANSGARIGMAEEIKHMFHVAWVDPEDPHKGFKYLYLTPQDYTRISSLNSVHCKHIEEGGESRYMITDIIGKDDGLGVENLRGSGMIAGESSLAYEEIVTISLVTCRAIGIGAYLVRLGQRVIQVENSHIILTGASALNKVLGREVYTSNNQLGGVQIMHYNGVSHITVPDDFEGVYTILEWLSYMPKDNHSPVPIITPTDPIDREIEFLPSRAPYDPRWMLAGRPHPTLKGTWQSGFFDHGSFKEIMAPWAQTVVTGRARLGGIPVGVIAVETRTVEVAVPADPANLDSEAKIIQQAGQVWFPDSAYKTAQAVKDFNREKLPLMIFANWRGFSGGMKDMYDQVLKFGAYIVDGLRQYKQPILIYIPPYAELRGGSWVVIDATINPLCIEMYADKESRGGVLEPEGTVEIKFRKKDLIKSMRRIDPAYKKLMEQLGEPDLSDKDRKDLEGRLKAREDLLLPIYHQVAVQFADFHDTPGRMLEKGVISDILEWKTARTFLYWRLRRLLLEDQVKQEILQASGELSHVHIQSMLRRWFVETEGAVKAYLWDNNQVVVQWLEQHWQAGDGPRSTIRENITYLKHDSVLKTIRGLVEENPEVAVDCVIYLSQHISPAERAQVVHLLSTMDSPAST

For `C=C[C@](C)(O)CC/C=C(\C)C(=O)O[C@H]1[C@H](O)[C@@H](O)[C@H](O[C@@](C)(C=C)CC/C=C(\CO)C(=O)O[C@H]2C[C@]3(C(=O)O[C@@H]4O[C@H](CO)[C@@H](O)[C@H](O)[C@H]4O[C@@H]4O[C@@H](C)[C@H](O[C@@H]5O[C@@H](CO)[C@H](O)[C@H]5O)[C@@H](O[C@@H]5O[C@H](CO)[C@@H](O)[C@H](O)[C@H]5O)[C@H]4O)[C@H](O)C[C@]4(C)C(=CC[C@@H]5[C@@]6(C)CC[C@H](O[C@@H]7O[C@H](CO[C@@H]8O[C@H](C)[C@H](O)[C@H](O)[C@H]8O[C@@H]8OC[C@@H](O)[C@H](O)[C@H]8O)[C@@H](O)[C@H](O)[C@H]7NC(C)=O)C(C)(C)[C@@H]6CC[C@]54C)[C@@H]3CC2(C)C)O[C@@H]1C` [avicin G], the “ACC Activity (%) ± S.D.” value in data set [1] (human ACC2, additive at 50 μM, curcumin in 1% (v/v) DMSO final, activity without test compound = 100%, duplicate) is given as 106 ± 7%. In data set [1] (human ACC2, dose-response series, all concentrations in 1% (v/v) DMSO, FIG. 1), the “dose-response inhibition of ACC2 (in words)” value is “No significant inhibition”. In addition, in data set [1] (recombinant human ACC2, radioactive assay, conditions of Table 1), the “effect on ACC2 activity (in words)” value was “no significant effect”.

Consider `COc1cc(/C=C/C(=O)CC(=O)/C=C/c2ccc(O)c(OC)c2)ccc1O` [curcumin, 1,7,-bis(4-hydroxy-3-methoxyphenyl)-1,6-heptadiene-3,5-dione], for which the activity at 50 µM in data set [1] (human ACC2, additive at 50 μM, curcumin in 1% (v/v) DMSO final, activity without test compound = 100%, duplicate, read-out: ACC Activity (%) ± S.D.) stood at 57 ± 3%. For the same compound, the solubility in dimethylsulfoxide entry in data set [2] (dimethylsulfoxide) was “soluble”. Moreover, the solubility in ethanol entry in data set [2] (ethanol) is given as “soluble”. Also, the solubility in ether entry in data set [2] (ether) is given as “insoluble”. In addition, in data set [2] (water), the solubility in water result is reported as “insoluble”.
